Laboratory results as given in ChEMBL document CHEMBL3853328, “A molecular dynamics simulation investigation of the relative stability of the cyclic peptide octreotide and its deprotonated and its (CF3)-Trp substituted analogs in different solvents” (Bioorg Med Chem, 2016).

Biological target: Somatostatin receptor type 2 (Homo sapiens, UniProt P30874)
Assay: Binding affinity to human SST2 receptor

Chain of Somatostatin receptor type 2 (P30874 whole entry): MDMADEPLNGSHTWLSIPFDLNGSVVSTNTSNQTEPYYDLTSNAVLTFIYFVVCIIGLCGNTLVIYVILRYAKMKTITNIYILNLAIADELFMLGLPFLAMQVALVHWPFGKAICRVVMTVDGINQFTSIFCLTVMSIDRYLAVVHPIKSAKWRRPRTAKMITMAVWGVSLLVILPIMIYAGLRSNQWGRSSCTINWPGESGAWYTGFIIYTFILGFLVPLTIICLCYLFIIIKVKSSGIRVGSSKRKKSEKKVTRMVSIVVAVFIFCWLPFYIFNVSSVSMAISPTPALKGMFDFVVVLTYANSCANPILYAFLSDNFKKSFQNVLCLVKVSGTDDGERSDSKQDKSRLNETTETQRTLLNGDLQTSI

- Kd: 0.0155 µM
SMILES: C[C@@H](O)[C@H](CO)NC(=O)[C@@H]1CSSC[C@H](NC(=O)[C@H](N)Cc2ccccc2)C(=O)N[C@@H](Cc2ccccc2)C(=O)N[C@H](Cc2c(C(F)(F)F)[nH]c3ccccc23)C(=O)N[C@@H](CCCCN)C(=O)N[C@@H]([C@@H](C)O)C(=O)N1
